Results from ChEMBL document CHEMBL1201862, “PubChem BioAssay data set” (2004).
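96-well plates; 48 h exposure; 5 concentrations. Endpoints by linear interpolation between flanking doses. Not reached: highest tested concentration assigned. The concentration for 50% growth inhibition is given as GI50.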 Activity calls are given as the source filed them. No stated cut-off is given here; in the data, active = GI50 up to about 1.1 µM and inactive = higher.

Tests used:
Assay in all cases: growth of human tumour cells (NCI), 48 h
A549 = tested on: A549
ACHN = tested on: ACHN
BT-549 = tested on: BT-549
CAKI-1 = tested on: CAKI-1
CCRF-CEM = tested on: CCRF-CEM
HT-29 = tested on: HT-29
IGROV-1 = tested on: IGROV-1
KM12 = tested on: KM12
Malme-3M = tested on: Malme-3M
NCI-H23 = tested on: NCI-H23
NCI-H522 = tested on: NCI-H522
OVCAR-4 = tested on: OVCAR-4
OVCAR-8 = tested on: OVCAR-8
RPMI-8226 = tested on: RPMI-8226
SF-268 = tested on: SF-268
SK-MEL-5 = tested on: SK-MEL-5
SN12C = tested on: SN12C
SR = tested on: SR
T47D = tested on: T47D
UACC-62 = tested on: UACC-62

Structure (SMILES) | GI50 (A549) | GI50 (ACHN) | GI50 (BT-549) | GI50 (CAKI-1) | GI50 (CCRF-CEM) | GI50 (HT-29) | GI50 (IGROV-1) | GI50 (KM12) | GI50 (Malme-3M) | GI50 (NCI-H23) | GI50 (NCI-H522) | GI50 (OVCAR-4) | GI50 (OVCAR-8) | GI50 (RPMI-8226) | GI50 (SF-268) | GI50 (SK-MEL-5) | GI50 (SN12C) | GI50 (SR) | GI50 (T47D) | GI50 (UACC-62)
O=c1[nH]c2nc3ccccc3c(=O)n2/c1=C/c1cccs1 | > 100 µM (inactive) | > 100 µM (inactive) | > 100 µM (inactive) | > 100 µM (inactive) | > 100 µM (inactive) | > 100 µM (inactive) | > 100 µM (inactive) | 70.3 µM (inactive) | > 100 µM (inactive) | > 100 µM (inactive) | > 100 µM (inactive) | > 100 µM (inactive) | > 100 µM (inactive) | > 100 µM (inactive) | > 100 µM (inactive) | > 100 µM (inactive) | > 100 µM (inactive) | > 100 µM (inactive) | 69.7 µM (inactive) | > 100 µM (inactive)
CC(C)Cn1cnc2c(NCC(C)O)nc3ccccc3c21 (configuration not stated) | > 100 µM (inactive) | 41.1 µM (inactive) | > 100 µM (inactive) | 66.4 µM (inactive) | > 100 µM (inactive) | 36.6 µM (inactive) | 36.8 µM (inactive) | > 100 µM (inactive) | 74.3 µM (inactive) | > 100 µM (inactive) | > 100 µM (inactive) | > 100 µM (inactive) | > 100 µM (inactive) | > 100 µM (inactive) | > 100 µM (inactive) | 70.6 µM (inactive) | > 100 µM (inactive) | 84.5 µM (inactive) | > 100 µM (inactive) | 52.2 µM (inactive)
COc1ccc2nc3cc([N+](=O)[O-])ccc3c(NNc3ccc([N+](=O)[O-])cc3)c2c1 | 7.18 µM (inactive) | 46.9 µM (inactive) | 43.1 µM (inactive) | 0.818 µM (active) | 30.8 µM (inactive) | 7.46 µM (inactive) | 7.96 µM (inactive) | 24.5 µM (inactive) | 30.1 µM (inactive) | 28.4 µM (inactive) | 29.3 µM (inactive) | 57.4 µM (inactive) | > 58.1 µM (inactive) | 18.7 µM (inactive) | 54.7 µM (inactive) | 19.8 µM (inactive) | 31.5 µM (inactive) | 32.5 µM (inactive) | 37.6 µM (inactive) | 3.37 µM (inactive)
COc1ccc(C[C@H]2COC(=O)[C@@H]2Cc2cc(OC)c(OC)c(OC)c2)cc1OC | > 100 µM (inactive) | > 100 µM (inactive) | 32 µM (inactive) | > 100 µM (inactive) | 48.2 µM (inactive) | > 100 µM (inactive) | > 94.6 µM (inactive) | > 70.3 µM (inactive) | > 100 µM (inactive) | 99.3 µM (inactive) | > 68.7 µM (inactive) | > 61.7 µM (inactive) | 50.1 µM (inactive) | 17.1 µM (inactive) | > 100 µM (inactive) | 26.2 µM (inactive) | > 100 µM (inactive) | 5.9 µM (inactive) | 17.9 µM (inactive) | 72.1 µM (inactive)
CCO/C=N/C1=C(C#N)SC2=N/C(=C\c3ccccc3)C(=O)N21 | > 100 µM (inactive) | > 100 µM (inactive) | > 100 µM (inactive) | > 100 µM (inactive) | 60.5 µM (inactive) | > 100 µM (inactive) | > 100 µM (inactive) | > 100 µM (inactive) | > 100 µM (inactive) | > 100 µM (inactive) | > 100 µM (inactive) | 57.9 µM (inactive) | > 100 µM (inactive) | > 58.1 µM (inactive) | > 100 µM (inactive) | > 100 µM (inactive) | > 100 µM (inactive) | 39.4 µM (inactive) | 86.9 µM (inactive) | > 100 µM (inactive)
CCOP(=O)(OCC)OC1CC(n2cnc3c(N(CC)CC)ncnc32)OC1CO[Si](C)(C)C(C)(C)C (configuration not stated) | 15.7 µM (inactive) | 15.3 µM (inactive) | 16.1 µM (inactive) | 17.5 µM (inactive) | 14.4 µM (inactive) | 16.6 µM (inactive) | 16.9 µM (inactive) | 19.7 µM (inactive) | 22.4 µM (inactive) | 17 µM (inactive) | 14.3 µM (inactive) | 14.1 µM (inactive) | 21.1 µM (inactive) | 28 µM (inactive) | 15.3 µM (inactive) | 17.3 µM (inactive) | 19.4 µM (inactive) | 31.3 µM (inactive) | 12 µM (inactive) | 14.8 µM (inactive)
O=C(O)c1ccc(C(=O)O)c(C(=O)Nc2ccc3c(c2)C(=O)c2ccccc2-3)c1 | > 100 µM (inactive) | > 100 µM (inactive) | > 100 µM (inactive) | > 100 µM (inactive) | 48 µM (inactive) | > 100 µM (inactive) | > 100 µM (inactive) | > 100 µM (inactive) | > 100 µM (inactive) | > 100 µM (inactive) | > 100 µM (inactive) | > 100 µM (inactive) | > 100 µM (inactive) | > 100 µM (inactive) | > 100 µM (inactive) | > 100 µM (inactive) | > 100 µM (inactive) | > 100 µM (inactive) | > 100 µM (inactive) | > 100 µM (inactive)
CCCNC(=O)CCC(C)[C@H]1CCC2C3C(C[C@H](OC(C)=O)[C@@]21C)[C@@]1(C)CCC2(C[C@H]1C[C@H]3OC(C)=O)OOC1(CCC(C)CC1)OO2 (some centres not stated) | 2.17 µM (inactive) | 2.14 µM (inactive) | 27.1 µM (inactive) | 2.28 µM (inactive) | 0.0376 µM (active) | 36.9 µM (inactive) | 1.87 µM (inactive) | 5.52 µM (inactive) | 18.6 µM (inactive) | 4.88 µM (inactive) | 13 µM (inactive) | 15.8 µM (inactive) | 19.5 µM (inactive) | 3.65 µM (inactive) | 20 µM (inactive) | 14.6 µM (inactive) | 43.6 µM (inactive) | 9.79 µM (inactive) | 15.9 µM (inactive) | 43.5 µM (inactive)
CC1(C)CC(Nc2ccc(Nc3ccccc3)cc2)CC(C)(C)N1 | 45.9 µM (inactive) | 13.5 µM (inactive) | 12.7 µM (inactive) | 22.9 µM (inactive) | 6.41 µM (inactive) | 21.3 µM (inactive) | 44.1 µM (inactive) | 44.1 µM (inactive) | 17.9 µM (inactive) | 42.4 µM (inactive) | 10.1 µM (inactive) | 34.2 µM (inactive) | 30.1 µM (inactive) | 12.7 µM (inactive) | 43.3 µM (inactive) | 15.2 µM (inactive) | 48.6 µM (inactive) | 14.6 µM (inactive) | 16 µM (inactive) | 16.1 µM (inactive)
CC(=O)OC1(C)N=NC2(CCCCC2)O1 (configuration not stated) | > 100 µM (inactive) | > 100 µM (inactive) | > 100 µM (inactive) | > 100 µM (inactive) | > 100 µM (inactive) | > 100 µM (inactive) | > 100 µM (inactive) | > 100 µM (inactive) | > 100 µM (inactive) | > 100 µM (inactive) | > 100 µM (inactive) | > 100 µM (inactive) | > 100 µM (inactive) | > 100 µM (inactive) | > 100 µM (inactive) | > 100 µM (inactive) | > 100 µM (inactive) | > 100 µM (inactive) | > 100 µM (inactive) | > 100 µM (inactive)
O=C1C(c2cnc3ccccc3n2)=C(O)c2ccccc21 | > 81.8 µM (inactive) | > 86.5 µM (inactive) | > 100 µM (inactive) | > 24.5 µM (inactive) | > 100 µM (inactive) | > 74.1 µM (inactive) | > 83 µM (inactive) | 7.08 µM (inactive) | > 100 µM (inactive) | > 100 µM (inactive) | > 72.9 µM (inactive) | > 53.6 µM (inactive) | > 75.7 µM (inactive) | > 61.1 µM (inactive) | > 93.8 µM (inactive) | 9.75 µM (inactive) | > 77.3 µM (inactive) | > 59.7 µM (inactive) | 83.6 µM (inactive) | > 100 µM (inactive)
O=c1c2ccc(Cl)cc2oc2c(CNc3ccc(S(=O)(=O)Nc4ncccn4)cc3)cccc12 | > 100 µM (inactive) | > 100 µM (inactive) | > 100 µM (inactive) | > 100 µM (inactive) | > 100 µM (inactive) | > 100 µM (inactive) | > 100 µM (inactive) | > 100 µM (inactive) | > 100 µM (inactive) | > 100 µM (inactive) | > 100 µM (inactive) | > 100 µM (inactive) | > 100 µM (inactive) | > 100 µM (inactive) |  | > 100 µM (inactive) | > 100 µM (inactive) | > 100 µM (inactive) | > 100 µM (inactive) | > 100 µM (inactive)
Cc1cc(S(=O)(=O)N/C(=C(\C#N)C(=O)c2ccc(Cl)cc2)[n+]2ccc(N(C)C)cc2)c([S-])cc1Cl | 37.6 µM (inactive) | > 100 µM (inactive) | > 100 µM (inactive) | > 100 µM (inactive) | 64 µM (inactive) | 30.1 µM (inactive) | > 100 µM (inactive) | > 100 µM (inactive) | 0.836 µM (active) |  | 28.9 µM (inactive) | 40.9 µM (inactive) | > 100 µM (inactive) | 45.2 µM (inactive) | 76.6 µM (inactive) | > 100 µM (inactive) | > 100 µM (inactive) | 41.3 µM (inactive) | > 100 µM (inactive) | > 100 µM (inactive)
CCOC(=O)c1nc2ccccc2nc1Nc1ccc(OC)c(OC)c1 | > 100 µM (inactive) | > 100 µM (inactive) | > 100 µM (inactive) | > 100 µM (inactive) | > 100 µM (inactive) | > 100 µM (inactive) | > 100 µM (inactive) | > 100 µM (inactive) | > 100 µM (inactive) | > 100 µM (inactive) | > 100 µM (inactive) | > 100 µM (inactive) |  | > 100 µM (inactive) | 27.3 µM (inactive) | 63.7 µM (inactive) | > 100 µM (inactive) | > 100 µM (inactive) | > 100 µM (inactive) | > 100 µM (inactive)
